Assay results taken from patent publication US20060035317A1, “Effect of treatment with 4,5-dihydroxy-2-cyclopenten-1-one (dhcp) on gene expression and quorum-sensing in bacteria” (priority 2002, published 2006).
Like-named read-outs stand apart in the source and are kept apart here.

Legend:
[1] = tested on: AI-2 activity, V. harveyi reporter strain BB170; assay: AI-2 assay (luminescence of reporter strain); type: cell-based
Method: FIGS. 2A and 2B are graphs showing DHCP inhibits AI-2 activity. The AI-2 activity assay was carried out as described in Materials and Methods section of Example 1. The luminescence seen with V. harveyi BB152 was assumed as 100% and the other activities were expressed as relative %. In FIG. 2A, the lanes are as follows: Sterile AB medium, lane 1; V. harveyi BB152 culture fluid, lane 2; DHCP (250 μM), lane 3; DHCP (250 μM) plus V. harveyi BB152 culture fluid, lane 4. In FIG. 2B, DHCP was added to the reaction mixtures after maximum luminescence was generated by AI-2, at a concentration of 250 μM (closed circles) and 100 μM (open squares). The corresponding control activity of AI-2 without DHCP addition is also shown (open triangles). The light production was monitored at various time points with a liquid scintillation counter.
The AI-2 assays using V. harveyi reporter strain (BB170) were carried out as described by Surette and Bassler (Surette et al., 1999). Cell-free culture fluid from V. harveyi BB152 strain was used as a positive control. Sterile AB medium was used a negative control. Briefly, the V. harveyi BB170 strain was grown overnight with aeration at 30° C. in the AB medium and the cells were then diluted 1:5000 in the fresh medium. The diluted culture (90 μl) was added in the assay mixture containing 10 μl of AB medium or cell-free culture fluid of V. harveyi BB152/DHCP (100-250 μM). To check the effect of DHCP on the light production by AI-2, it was added to the reaction mixture after the maximum luminescence was achieved. The light production was monitored with a liquid scintillation counter.
In the present study, the AI-2 assay designed by Suretter and Bassler (Surette et al., 1999) was used. The V. harveyi BB170 reporter strain has the quorum-sensing phenotype, sensor 1^−, sensor 2^+. It induces lux expression through the signaling system 2 detector. Addition of 10% cell-free culture fluid prepared from V. harveyi BB152 strain (containing the system 2 autoinducer) stimulates luminescence expression in the reporter strain. […] The laboratory of the present inventors examined if DHCP inhibits the activity of AI-2. […] Sterile AB medium was used as a negative control (lane 1). […] It has been reported that the AI-2 gave maximum luminescence at approximately 10 μM concentration (Schauder et al., 2001). It should be noted that the DHCP concentration used in the present assay was in excess of the AI-2 concentration. It was also tested if DHCP can inhibit AI-2 activity when it is added after maximum luminescence is generated by AI-2. […] When it was added at the concentration of 100 μM (open squares), the AI-2 activity was reduced to zero after 40 min. The corresponding control activity without DHCP addition (open triangles) was completely stable.

[2] = tested on: E. coli JM83; conditions: DHCP 250 μM, Phadtare et al., 2001, cited from earlier work

For `O=C1C=CC(O)C1O` (stereo not drawn) [DHCP, 4,5-dihydroxy-2-cyclopenten-1-one], which “Time until AI-2 activity was reduced to zero” value ([1]; DHCP 100 μM added after maximum luminescence generated by AI-2, FIG. 2B) is on record?
The value was 40 min.

What about the “Time until AI-2 activity was reduced to zero” value ([1]; DHCP 250 μM added after maximum luminescence generated by AI-2, FIG. 2B) of the same molecule?
Its value is at most 8 min.

What about the “Inhibition of AI-2 activity” value ([1]; DHCP 250 μM added immediately before AI-2 containing cell-free extract of V. harveyi BB152, FIG. 2A lane 4) of the same molecule?
Its value is “completely inhibited”.

And the “AI-2 activity (luminescence) of DHCP itself” value ([1]; DHCP 250 μM alone, FIG. 2A lane 3)?
The value was “did not show AI-2 activity”.

And the “Growth of E. coli JM83” value ([2]; after 3 h of incubation)?
Its value is “severely impaired”.

And the “Growth of E. coli JM83” value ([2]; after 5 h)?
Its value is “stopped growing”.
